Experiments:
[1] = tested on: cyclic AMP phosphodiesterase; test: Resistance to phosphodiesterase (PDE) degradation; assay type: biochemical; settings: rabbit kidney PDE, pH 7.5, 37°C
[2] = tested on: 6-methylthio-purine riboside-resistant Ehrlich carcinomas; test: Growth inhibition of surgically implanted Ehrlich carcinomas in mice; assay type: in vivo; settings: intraperitoneally, 83 μmoles/Kg
Herpes virus Type 2 = test: Antiviral activity, virus rating (VR) method, Herpes Type 2; assay type: cell-based; settings: virus rating (VR) method of Sidwell et al.
Text: (§1) Tested according to the virus rating (VR) method of Sidwell et al., Proc. Soc.

adenyl cyclase = test: Adenyl cyclase inhibition (guinea pig lung particulate fraction); assay type: biochemical; settings: guinea pig lung particulate enzyme fraction, 1.2 mM ATP, pH 7.8, 15 min at 37°; read-out: I50 (concentration required for 50% enzyme inhibition)
Procedure: Lunt alveolar tissue was obtained from normal guinea pigs. The tissue was minced and a Duall tissue grinder was used to prepare a 20% homogenate in chilled buffer containing 1 mM MgCl 2 and 2 mM glycylglycine, pH 7.5 (F. Murad et al., J. Biol. Chem. 237: 1233, 1962). The homogenate was strained through four layers of gauze and centrifuged at 1000xg for 15 min at 4°. The pellet was resuspended in the original volume of buffer and recentrifuged. The pellet was again resuspended in buffer and 0.5 - 1.0 ml aliquots were sealed in ampoules and stored under liquid nitrogen for future assay of adenylate cyclase activity. […] Protein was determined by the method of Lowry et al., J. Biol. Chem. 193: 265, 1951, with crystalline bovine serum albumin as standard.
Adenylate cyclase activity was assayed in duplicate by a modification of previously published methods (G. Krishna et al., J. Pharmacol. Exp. Therap. 163: 379, 1968; G. S. Levey and S. E. Epstein, Circ. Res. 24: 151, 1969). The total assay volume was 0.59 ml and contained 1.8 mM MgCl2, 0.8 mM glycylglycine, 32 mM Tris (pH 7.8), 1.2 mM ATP, 3-5×10^6 cpm [α-^32 P] ATP, and particulate enzyme fraction (100-150 μg. lung protein). Concentrated solutions of compounds to be tested were prepared fresh daily by dissolution in water, ethanol, or dimethyl sulfoxide; 5-10 μl of the solution was added to the incubation mixture to give the desired final concentration. Control assays (without compound) contained solvent alone.
The incubation mixture was reacted for 15 min at 37° in a shaker, and then boiled for 3 min to inactivate the cyclase. One hundred μl of a solution containing 4 μmoles ATP, 1.25 μmoles cyclic AMP, and 0.15μCi [^3 H] cyclic AMP was added to the reaction mixture. […] After centrifugation, 1 ml of supernatant containing [^32 P] cyclic AMP and [^3 H] cyclic AMP was mixed with 15 ml of scintillator (100 g naphthalene, 14 g PPO, and 0.1 g dimethyl POPOP per 2 l dioxane) and counted. […]

[3] = tested on: cyclic AMP-dependent protein kinase; test: Activation of bovine brain cyclic AMP-dependent protein kinase; assay type: biochemical; settings: pH 6, relative to cyclic AMP
Procedure: Cyclic AMP-dependent protein kinase was purified to the stage of DEAE cellulose chromatography from bovine brain using the procedure of Miyamoto et al., J. Biol. Chem. 244, 6395 (1969). Protein kinase activity was assayed by measuring the incorporation of ^32 P-phosphate into histone from γ-^32 P labeled ATP. The incubation mixture contained (amounts in μmoles): sodium glycerol phosphate buffer, pH 6, 10; γ-^32 P-ATP, ~2 × 10^6 cpm, 0.001; magnesium acetate, 2; sodium fluoride, 2; EDTA, 0.06; histone, 40 - 400 μg; cAMP, cGMP or analog as indicated; purified protein kinase, 5 - 25 μg in a final volume of 0.2 ml. Activation constants (Ka) were determined according to the procedure of Muneyama et al., supra. The Ka values relative to cyclic AMP (Ka') are reported in Table IV and compared to Ka' for compound 6.

Rhino viruses = test: Antiviral activity, virus rating (VR) method, Rhino viruses; assay type: cell-based; settings: virus rating (VR) method of Sidwell et al.
Text: as §1

L-929 cells = test: Interferon potentiation in vitro with L-929 cells; assay type: cell-based
Herpes virus Type 1 = test: Antiviral activity, virus rating (VR) method, Herpes Type 1; assay type: cell-based; settings: virus rating (VR) method of Sidwell et al.
Text: as §1

SMILES	rate of analog hydrolysis relative to cyclic AMP (α) [1]	inhibition of growth of Ehrlich carcinomas [2]	activity against Herpes virus Type 2 (Herpes virus Type 2)	IC50 (adenyl cyclase)	Ka' (= Ka, cyclic AMP/Ka analog) [3]	activity against Rhino viruses (Rhino viruses)	interferon potentiation (L-929 cells)	activity against Herpes virus Type 1 (Herpes virus Type 1)
O=P1(O)OC[C@H]2O[C@@H](n3cnc4c(SCc5ccccc5)ncnc43)[C@H](O)[C@@H]2O1 [Compound 7c, 6-Benzylthio-9-β-D-ribofuranosylpurine 3', 5'-cyclic phosphate]	0.54	inhibited growth	exhibited activity	7000 µM	1.25			
CCSc1ncnc2c1ncn2[C@@H]1O[C@@H]2COP(=O)(O)O[C@H]2[C@H]1O [Compound 7b, 6-Ethylthio-9-β-D-ribofuranosylpurine 3', 5'-cyclic phosphate]	0.57			1000 µM	2.0	exhibited activity	marked interferon potentiation	exhibited activity
CSc1ncnc2c1ncn2[C@@H]1O[C@@H]2COP(=O)(O)O[C@H]2[C@H]1O [Compound 7a, 6-Methylthio-9-β-D-ribofuranosylpurine 3', 5'-cyclic phosphate]	0.41		exhibited activity	340 µM	1.45		marked interferon potentiation	exhibited activity
O=P1(O)OC[C@H]2O[C@@H](n3cnc4c(=S)[nH]cnc43)[C@H](O)[C@@H]2O1 [Compound 6, 9-β-D-Ribofuranosylpurin-6-thione 3', 5'-cyclic phosphate, reference compound]	1.06				0.56		did not	

Source: patent publication US3948886A, “6-Substituted purine 3',5'-cyclic nucleotides” (ICN Pharmaceuticals, Inc., priority 1973, dated 1976)
